How the values were obtained:
Format in all cases: in vivo
Aphis gossypii = Aphis gossypii test (dipped cotton leaves)
Protocol: (§1) To produce a suitable preparation of active compound, 1 part by weight of active compound is mixed with the stated amounts of solvent and emulsifier, and the concentrate is diluted with emulsifier-containing water to the desired concentration.
Cotton leaves (Gossypium hirsutum) which are heavily infested by the cotton aphid (Aphis gossypii) are treated by being dipped into the preparation of active compound of the desired concentration.
After the desired period of time; the kill in % is determined. 100% means that all aphids have been killed; 0% means that none of the aphids have been killed. The determined kill rates are entered into Colby's formula (see page 41).

[1] = system: Phaedon cochleariae larvae; experiment: Phaedon cochleariae larvae test (dipped cabbage leaves)
Protocol: as §1
Cabbage leaves (Brassica oleracea) are treated by being dipped into the preparation of active compound of the desired concentration and are populated with larvae of the mustard beetle (Phaedon cochleariae) while the leaves are still moist.
After the desired period of time, the kill in % is determined. 100% means that all beetle larvae have been killed; 0% means that none of the beetle larvae have been killed. The determined kill rates are entered into Colby's formula (see page 41).

Myzus persicae = Myzus persicae test (dipped cabbage leaves); conditions: 4 ppm
Protocol: as §1
Cabbage leaves (Brassica oleracea) which are heavily infested by the green peach aphid (Myzus persicae) are treated by being dipped into the preparation of active compound of the desired concentration.
After the desired period of time, the kill in % is determined. 100% means that all aphids have been killed; 0% means that none of the aphids have been killed. The determined kill rates are entered into Colby's formula (see on page 41).

[2] = system: Plutella xylostella, resistant strain; experiment: Plutella xylostella test (resistant strain)
Protocol: as §1
Cabbage leaves (Brassica oleracea) are treated by being dipped into the preparation of active compound of the desired concentration and are populated with caterpillars of the diamondback moth (Plutella xylostella, resistant strain) while the leaves are still moist.
(§2) After the desired period of time, the kill in % is determined. 100% means that all caterpillars have been killed; 0% means that none of the caterpillars have been killed. The determined kill rates are entered into Colby's formula (see page 41).

Spodoptera frugiperda = Spodoptera frugiperda test (dipped cabbage leaves)
Protocol: as §1
Cabbage leaves (Brassica oleracea) are treated by being dipped into the preparation of active compound of the desired concentration and are populated with caterpillars of the army worm (Spodoptera frugiperda) while the leaves are still moist.
as §2

In the case of `CC(C)N1C(=O)N(c2ccccc2)CS/C1=N\C(C)(C)C` [(2-2) buprofezin, buprofezin, reference compound], the “Kill rate in % after 7d, found” value (Aphis gossypii; 20 ppm) is reported as 0% and the “Kill rate in % after 3d, found” value ([1]; 100 ppm) is reported as 20%.
With `CCOC(=O)OC1=C(c2cc(C)ccc2C)C(=O)NC12CCC(OC)CC2` (stereo not shown) [I-a-4] the “Kill rate in % after 6d, found” value (Myzus persicae; Table B1) was 80%, the “Kill rate in % after 6d, found” value ([1]; 4 ppm) was 15% and the “Kill rate in % after 6d, found” value ([2]; 0.16 ppm) was 0%.
For `N#CCNC(=O)c1cnccc1C(F)(F)F` [(2-6) flonicamid, flonicamid, reference compound], the “Kill rate in % after 6d, found” value (Myzus persicae; Table B2) was 40%, the “Kill rate in % after 6d, found” value (Aphis gossypii; 20 ppm) was 40% and the “Kill rate in % after 3d, found” value (Spodoptera frugiperda; 100 ppm) was 5%.
With `Cc1cc(Cl)cc(C(=O)NC(C)C)c1NC(=O)c1cc(C(F)(F)F)nn1-c1ncccc1Cl` [II-1-9] the “Kill rate in % after 6d, found” value (Myzus persicae; Table B1) was 30%, the “Kill rate in % after 6d, found” value (Myzus persicae; Table B2) was 0% and the “Kill rate in % after 7d, found” value (Aphis gossypii; 4 ppm) was 20%. The “Kill rate in % after 6d, found” value (Aphis gossypii; 20 ppm) was 55%, the “Kill rate in % after 3d, found” value ([1]; 0.16 ppm) was 5% and the “Kill rate in % after 6d, found” value ([1]; 0.16 ppm) was 0%. For the same compound, the “Kill rate in % after 3d, found” value (Spodoptera frugiperda; 0.16 ppm) was 45% and the “Kill rate in % after 6d, found” value ([2]; 0.0064 ppm) was 0%.
